# Results published in article PMC12967844 (Engineering Microbiology, 2025).
# Target: PtlI (pentalenene oxygenase) (Streptomyces avermitilis, UniProt Q82IY3)
# Settings: E. coli co-expressing penA; substrate made in the cell; endogenous E. coli redox proteins
# Sequence of PtlI (pentalenene oxygenase) (Q82IY3 whole entry): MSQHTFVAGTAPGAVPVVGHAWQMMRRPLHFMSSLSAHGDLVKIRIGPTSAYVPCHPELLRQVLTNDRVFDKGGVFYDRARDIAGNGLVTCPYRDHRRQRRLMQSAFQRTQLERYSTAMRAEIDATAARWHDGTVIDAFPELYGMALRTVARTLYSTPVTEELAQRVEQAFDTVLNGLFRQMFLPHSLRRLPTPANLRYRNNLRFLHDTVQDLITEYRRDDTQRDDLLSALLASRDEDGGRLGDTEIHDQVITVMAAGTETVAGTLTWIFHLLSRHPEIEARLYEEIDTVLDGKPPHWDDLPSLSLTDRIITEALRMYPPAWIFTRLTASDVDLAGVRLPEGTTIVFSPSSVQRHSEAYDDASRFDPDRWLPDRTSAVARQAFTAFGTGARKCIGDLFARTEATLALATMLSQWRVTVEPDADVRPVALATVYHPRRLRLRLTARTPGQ
compound,measurement,value
"CC1=C[C@@H]2CC(C)(C)C[C@@]23[C@H](C)CC[C@@H]13 [compound 3, pentalenene]","GC-MS of culture extracts, heterologous expression in E. coli",PtlI can catalyze a three-step oxidation in the cell
